Laboratory results from PubChem BioAssay AID2060483 (Molecular Pharmacology Branch, DTP, NCI, 2025).
Each block holds one molecule with its values, some of them ahead of it.

Tested on: K24384-001-R-PDC complex spheroids, viability
Assay: Anticancer human tumor K24384-001-R-PDC patient-derived pancreatic adenocarcinoma cell line growth inhibition [GQUAD]
Conditions: for IC50: curve of first compound; for viability, T/C: stronger effect = lower value
How it was run: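 Tumor cells were grown as complex spheroids with HUVEC endothelial cells and mesenchymal stem cells as stroma. G-quadruplex stabilizers were combined with targeted agents over half-log dilutions from near the clinical Cmax, or from 10 microM.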

[1] = second compound 0.0316 µM, first compound 0.0316 µM
[2] = second compound 0.0316 µM, first compound 0.1 µM
[3] = second compound 0.0316 µM, first compound 0.316 µM
[4] = second compound 0.0316 µM, first compound 1 µM
[5] = second compound 0.0316 µM, first compound 3.16 µM
[6] = second compound 0.0316 µM, first compound 10 µM
[7] = second compound 0.1 µM, first compound 0.0316 µM
[8] = second compound 0.1 µM, first compound 0.1 µM
[9] = second compound 0.1 µM, first compound 0.316 µM
[10] = second compound 0.1 µM, first compound 1 µM
[11] = second compound 0.1 µM, first compound 3.16 µM
[12] = second compound 0.1 µM, first compound 10 µM
[13] = second compound 0.316 µM, first compound 0.0316 µM
[14] = second compound 0.316 µM, first compound 0.1 µM
[15] = second compound 0.316 µM, first compound 0.316 µM
[16] = second compound 0.316 µM, first compound 1 µM
[17] = second compound 0.316 µM, first compound 3.16 µM
[18] = second compound 0.316 µM, first compound 10 µM
[19] = second compound 1 µM, first compound 0.0316 µM
[20] = second compound 1 µM, first compound 0.1 µM
[21] = second compound 1 µM, first compound 0.316 µM
[22] = second compound 1 µM, first compound 1 µM
[23] = second compound 1 µM, first compound 3.16 µM
[24] = second compound 1 µM, first compound 10 µM
[25] = second compound 3.16 µM, first compound 0.0316 µM
[26] = second compound 3.16 µM, first compound 0.1 µM
[27] = second compound 3.16 µM, first compound 0.316 µM
[28] = second compound 3.16 µM, first compound 1 µM
[29] = second compound 3.16 µM, first compound 3.16 µM
[30] = second compound 3.16 µM, first compound 10 µM
[31] = second compound 10 µM, first compound 0.0316 µM
[32] = second compound 10 µM, first compound 0.1 µM
[33] = second compound 10 µM, first compound 0.316 µM
[34] = second compound 10 µM, first compound 1 µM
[35] = second compound 10 µM, first compound 3.16 µM
[36] = second compound 10 µM, first compound 10 µM
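Further: spheroids exposed to compounds for seven days.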

SMILES: C#Cc1c(F)ccc2cc(O)cc(-c3ncc4c(N5CC6CCC(C5)N6)nc(OCC56CCCN5CC(F)C6)nc4c3F)c12 (stereo unspecified) + Cc1[nH]c2ccc(F)cc2c1-c1nc2c3cccnc3c3ncccc3c2[nH]1
- IC50 (second compound 0.0316 µM): 1360 nM
- IC50 (second compound 0.1 µM): 1490 nM
- IC50 (second compound 0.316 µM): 1540 nM
- IC50 (second compound 1 µM): 1820 nM
- IC50 (second compound 3.16 µM): 969 nM
- IC50 (second compound 10 µM): 1080 nM
- viability, T/C [1]: 99.9%
- viability, T/C [2]: 99.6%
- viability, T/C [3]: 129%
- viability, T/C [4]: 58.5%
- viability, T/C [5]: 34.4%
- viability, T/C [6]: 18.2%
- viability, T/C [7]: 93.9%
- viability, T/C [8]: 112%
- viability, T/C [9]: 85.1%
- viability, T/C [10]: 58%
- viability, T/C [11]: 34.3%
- viability, T/C [12]: 14.5%
- viability, T/C [13]: 97.1%
- viability, T/C [14]: 101%
- viability, T/C [15]: 74.4%
- viability, T/C [16]: 57.4%
- viability, T/C [17]: 39.2%
- viability, T/C [18]: 19.1%
- viability, T/C [19]: 91%
- viability, T/C [20]: 101%
- viability, T/C [21]: 83%
- viability, T/C [22]: 64.1%
- viability, T/C [23]: 37.5%
- viability, T/C [24]: 16.9%
- viability, T/C [25]: 75.6%
- viability, T/C [26]: 87.6%
- viability, T/C [27]: 64.7%
- viability, T/C [28]: 47.1%
- viability, T/C [29]: 31.3%
- viability, T/C [30]: 11.7%
- viability, T/C [31]: 80.5%
- viability, T/C [32]: 68.6%
- viability, T/C [33]: 69%
- viability, T/C [34]: 52.4%
- viability, T/C [35]: 27.5%
- viability, T/C [36]: 10.8%

SMILES: C=CC(=O)N1CCN(c2nc(=O)n(-c3c(C)ccnc3C(C)C)c3nc(-c4c(O)cccc4F)c(F)cc23)C(C)C1 (stereo unspecified) + Cc1[nH]c2ccc(F)cc2c1-c1nc2c3cccnc3c3ncccc3c2[nH]1
- IC50 (second compound 0.0316 µM): > 10000 nM
- IC50 (second compound 0.1 µM): > 10000 nM
- IC50 (second compound 0.316 µM): > 10000 nM
- IC50 (second compound 1 µM): > 10000 nM
- IC50 (second compound 3.16 µM): > 10000 nM
- IC50 (second compound 10 µM): > 10000 nM
- viability, T/C [1]: 111%
- viability, T/C [2]: 78.9%
- viability, T/C [3]: 104%
- viability, T/C [4]: 101%
- viability, T/C [5]: 111%
- viability, T/C [6]: 88.3%
- viability, T/C [7]: 96%
- viability, T/C [8]: 96.8%
- viability, T/C [9]: 95%
- viability, T/C [10]: 117%
- viability, T/C [11]: 106%
- viability, T/C [12]: 77.4%
- viability, T/C [13]: 110%
- viability, T/C [14]: 92.8%
- viability, T/C [15]: 95.2%
- viability, T/C [16]: 119%
- viability, T/C [17]: 101%
- viability, T/C [18]: 83.3%
- viability, T/C [19]: 92.8%
- viability, T/C [20]: 105%
- viability, T/C [21]: 99.5%
- viability, T/C [22]: 103%
- viability, T/C [23]: 96.2%
- viability, T/C [24]: 70.1%
- viability, T/C [25]: 71.7%
- viability, T/C [26]: 74.8%
- viability, T/C [27]: 71.2%
- viability, T/C [28]: 84.4%
- viability, T/C [29]: 79.2%
- viability, T/C [30]: 67.1%
- viability, T/C [31]: 66%
- viability, T/C [32]: 63.7%
- viability, T/C [33]: 65.7%
- viability, T/C [34]: 72.3%
- viability, T/C [35]: 80.5%
- viability, T/C [36]: 60.8%

- IC50 (second compound 0.0316 µM): > 316 nM
- IC50 (second compound 0.1 µM): > 316 nM
- IC50 (second compound 0.316 µM): > 316 nM
- IC50 (second compound 1 µM): < 0.999 nM
- IC50 (second compound 3.16 µM): < 0.999 nM
- IC50 (second compound 10 µM): < 0.999 nM
SMILES: Cn1ncnc1[C@H]1c2n[nH]c(=O)c3cc(F)cc(c23)N[C@@H]1c1ccc(F)cc1 + Cc1cnc(CNC(=O)c2c(=O)c3ccc(N4CCCN(C)CC4)nc3n3c2sc2ccccc23)cn1
- viability, T/C (second compound 0.0316 µM, first compound 0.000999 µM): 93.1%
- viability, T/C (second compound 0.0316 µM, first compound 0.00316 µM): 80.8%
- viability, T/C (second compound 0.0316 µM, first compound 0.00999 µM): 92.5%
- viability, T/C [1]: 81.9%
- viability, T/C (second compound 0.0316 µM, first compound 0.0999 µM): 87.2%
- viability, T/C [3]: 105%
- viability, T/C (second compound 0.1 µM, first compound 0.000999 µM): 69.1%
- viability, T/C (second compound 0.1 µM, first compound 0.00316 µM): 76%
- viability, T/C (second compound 0.1 µM, first compound 0.00999 µM): 53.6%
- viability, T/C [7]: 68.6%
- viability, T/C (second compound 0.1 µM, first compound 0.0999 µM): 72.8%
- viability, T/C [9]: 86.9%
- viability, T/C (second compound 0.316 µM, first compound 0.000999 µM): 52.5%
- viability, T/C (second compound 0.316 µM, first compound 0.00316 µM): 63.1%
- viability, T/C (second compound 0.316 µM, first compound 0.00999 µM): 50.6%
- viability, T/C [13]: 50.5%
- viability, T/C (second compound 0.316 µM, first compound 0.0999 µM): 53.5%
- viability, T/C [15]: 58.1%
- viability, T/C (second compound 1 µM, first compound 0.000999 µM): 44.6%
- viability, T/C (second compound 1 µM, first compound 0.00316 µM): 50.3%
- viability, T/C (second compound 1 µM, first compound 0.00999 µM): 43.6%
- viability, T/C [19]: 48.6%
- viability, T/C (second compound 1 µM, first compound 0.0999 µM): 62.6%
- viability, T/C [21]: 42%
- viability, T/C (second compound 3.16 µM, first compound 0.000999 µM): 43.4%
- viability, T/C (second compound 3.16 µM, first compound 0.00316 µM): 45.2%
- viability, T/C (second compound 3.16 µM, first compound 0.00999 µM): 43.5%
- viability, T/C [25]: 44.7%
- viability, T/C (second compound 3.16 µM, first compound 0.0999 µM): 47.8%
- viability, T/C [27]: 39%
- viability, T/C (second compound 10 µM, first compound 0.000999 µM): 42.8%
- viability, T/C (second compound 10 µM, first compound 0.00316 µM): 40.2%
- viability, T/C (second compound 10 µM, first compound 0.00999 µM): 37.7%
- viability, T/C [31]: 46.3%
- viability, T/C (second compound 10 µM, first compound 0.0999 µM): 26.6%
- viability, T/C [33]: 32.8%
